Test results from US20030176494A1, “Novel coumarin and chromene compounds and methods of preparation and use thereof for treating or preventing viral infections” (priority 2001, published 2003).
Values after ≈ are worked out from the molar mass of the structure shown. Like-named read-outs stand apart in the source and are kept apart here.

What was measured:
HIV = experiment: Anti-HIV evaluation by MTT-tetrazolium method (inhibition of CPE in MT-2 / CEM-SS cells); type: cell-based; conditions: Human immunodeficiency virus 1, CEM-SS; read-out: Antiviral Activities (EC50) HIV
Description: This example illustrates the anti-HIV activity of various coumarin and chromene compounds which were evaluated using the published MTT-tetrazolium methods^8. Retroviral agents AZT and DDC were used as controls for comparison purposes.
The cells used for screening were the MT-2 and the human T4-lymphoblastoid cell line, CEM-SS, and were grown in RPMI 1640 medium supplemented with 10% fetal (v/v) heat-inactivated fetal calf serum and also containing 100 units/mL penicillin, 100 μg/mL streptomycin, 25 mM HEPES and 20 μg/mL gentamicin. The medium used for dilution of drugs and maintenance of cultures during the assay was the same as above. The HTLV-IIIB and HTLV-RF were propagated in CEM-SS. The appropriate amounts of the pure compounds for anti-HIV evaluations were dissolved in DMSO, then diluted in medium to the desired initial concentration. The concentrations (M medium) employed were […]; 0.001 μM; 0.0032 μM; 0.01 μM; 0.032 μM; 0.1 μM; 0.32 μM; 1 μM; 3.2 μM; 10 μM; 32 μM; and 100 μM. Each dilution was added to plates in the amount of 100 μL/well. Drugs were tested in triplicate wells per dilution with infected cells while in duplicate wells per dilution with uninfected cells for evaluation of cytotoxicity. On day 6 (CEM-SS cells) and day 7 (MT-2 cells) post-infection, the viable cells were measured with a tetrazolium salt, MTT (5 mg/mL), added to the test plates. A solution of 20% SDS in 0.001 N HCl is used to dissolve the MTT formazan produced. The optical density value was a function of the amount of formazan produced which was proportional to the number of viable cells. The percent inhibition of CPE per drug concentration was measured as a test over control and expressed in percent (T/C %).

HBV = HBV replication in cultures of 2.2.15 cells (HBV DNA blot hybridization); type: cell-based; conditions: Hepatitis B virus; read-out: Antiviral Activities (EC50) HBV
Description: Test compounds are then added daily for a continuous 9 day period. Culture medium (changed daily during the treatment period) is collected and stored for analysis of extracellular (virion) HBV DNA after 0, 3, 6, and 9 days of treatment. Treated cells are lysed 24 hours following day 9 of treatment for the analysis of intracellular HBV genomic forms. HBV DVA is then analyzed in a quantitative and qualitative manner for overall levels of HBV DNA (both extracellular and intracellular DNA) and the relative rate of HBV replication (intracellular DNA).
Both intracellular and extracellular HBV DNA are analyzed in order to (i) allow for verification of compound efficacy and (ii) provide possible data on the target site in the HBV replication pathway for the compound from examination of the pattern of viral replicative forms. The culture medium is changed daily during the treatment period to (i) prevent the buildup of potentially toxic metabolites derived from test compounds and (ii) provide an analysis of HBV virion production during discrete 24-hour intervals which enables a quantitative comparison of any effect on virion production.
The analysis of HBV DNA is performed using blot hybridization techniques (Southern and slot blot) and [^32P]-labeled HBV-specific probes. HBV DNA levels are measured by comparison to known amounts of HBV DNA standards applied to every nitrocellulose membrane (gel or slot blot). An AMBIS beta scanner, which measures the radioactive decay of the hybridized probes directly from the nitrocellulose membranes, is used for the quantitative analysis. Standard curves, generated by multiple analyses, are used to correlate CPM measurements made by the beta scanner with relative levels of target HBV DNA. The levels of HBV virion DNA released into the culture medium are analyzed by a slot blot hybridization procedure. HBV DNA levels are then compared to those at Day 0 to determine the effect of drug treatment.
The levels of RI and episomal monomers are used as an indicator of the relative level of HBV replication. Integrated HBV DNA is used to normalize the relative amounts of DNA in each lane because the levels of this class of HBV DNA would be expected to remain constant on a per cell basis. […] Inhibition of HBV DNA replication is indicated by the loss of RI without changes in the level of integrated HBV DNA.

Measles Virus = experiment: Measles virus antiviral assay (CPE inhibition, neutral red uptake, virus yield); type: cell-based, Measles virus strain CC; conditions: Measles morbillivirus
[1] = tested on: Respiratory Syncytial Virus; experiment: Respiratory syncytial virus antiviral assay (CPE inhibition, neutral red uptake); type: cell-based, Respiratory syncytial virus strain Utah 89; conditions: human respiratory syncytial virus
VZV = VZV plaque reduction assay in human foreskin fibroblast cells; type: cell-based, Varicella Zoster Virus (Ellen strain); conditions: Human alphaherpesvirus 3, Fibroblast; read-out: Antiviral Activities (EC50) VZV
Description: [table] Two days prior to use, HFF cells are plated into six-well plates and incubated at 37° C. with 5% CO2 and 90% humidity. On the date of assay, the drug is made up at twice the desired concentration in 2×MEM and then serially diluted 1:5 in 2×MEM using six concentrations of drug. […] The media is then aspirated from the wells and 0.2 mL of virus is added to each well in duplicate with 0.2 mL of media being added to drug toxicity wells. The plates are then incubated for one hour with shaking every fifteen minutes. […] The drug agarose mixture is applied to each well in 2 mL volume and the plates then incubated for three days, after which the cells were stained with a 1.5% solution of neutral red. At the end of 4-6 hr incubation period, the stain is aspirated, and plaques counted using a stereomicroscope at 10× magnification. The procedure is essentially the same as for the HSV plaque assay described above with two exceptions: 1. After addition of the drug, the plates are incubated for ten days. 2.

EBV = EBV assay: superinfection of Raji or Daudi cells with P3HR-1, immunofluorescence for EA and VCA; type: cell-based, Epstein-Barr Virus (P3HR-1); conditions: human gammaherpesvirus 4; read-out: Antiviral Activities (EC50) EBV
Text: There are two prototypes of infectious EBV. One is exemplified by the virus derived from supernatant fluids of the P3HR-1cell line. This cell line produces nontransforming virus that causes the production of early antigen (EA) after primary infection or superinfection of B cell lines. The other prototype is exemplified by the B-95-8 virus. This virus immortalized cord blood lymphocytes and induced tumors in marmosets. […] The virus used in our assays is P3HR-1.
Ramos is an exceptional B cell line derived from Burkitt's lymphoma tumor but containing no detectable EBV genome copies and is EBNA negative. Ramos/AW was obtained by in vitro infection of Ramos with the P3HR-1 virus and contains one resident EBV genome copy/cell. Raji is a Burkitt's lymphoma cell line containing 60 EBV genomes/cell, and will be the primary cell used for screening antiviral activity against EBV EA expression. Daudi is a low level producer that contains 152 EBV genome copies/cell. It spontaneously expresses EBV EA in 0.25%-0.5% of the cells. It will be used in follow-up studies to confirm activity. These cell lines respond to superinfection by EBV by expressing EA(D), EA(R), and VCA. All cell lines are maintained in RPMI-1640 medium supplemented by 10% FCS, L-glutamine and 100 μg/mL gentamicin. The cultures are fed twice weekly and the cell concentration adjusted to 3×10^5/mL. The cells are kept at 37° C. in a humidified atmosphere with 5% CO2.
Cells are infected with the P3HR-1 strain of EBV and the drugs to be tested are added after adsorption (45 minutes at 37° C.) and washing of the cell cultures. The cultures are incubated for two days in complete medium to allow viral gene expression. Following the 48 hr incubation period, the number of cells of each sample are counted and smears made. Monoclonal antibodies to the different EA components and VCA are then added to the cells incubated and washed. This is followed by a fluorescein conjugated rabbit anti-mouse Ig antibody; and the number of fluorescence positive cells in the smears are counted. The total number of cells in the cultures positive for EA or VCA are then calculated and compared.

Rhinovirus = Rhinovirus antiviral assay (CPE inhibition, neutral red uptake, virus yield); type: cell-based; conditions: Enterovirus
[2] = CPE inhibition, read-out: Antiviral Activities (EC50) Measles (CPE)
[3] = neutral red (NR) dye uptake, read-out: Antiviral Activities (EC50) Measles (NR)
[4] = readout not stated, read-out: Antiviral Activities (EC50) Respiratory Syncitial
[5] = readout not stated, read-out: Antiviral Activities (EC50) Rhinovirus
[6] = CPE inhibition, read-out: Antiviral Activities (EC50) Rhinovirus (CPE)
[7] = neutral red (NR) dye uptake, read-out: Antiviral Activities (EC50) Rhinovirus (NR)

SMILES | EC50 (HIV) [µg/mL] | EC50 (HBV) [µg/mL] | EC50 (Measles Virus; [2]) [µg/mL] | EC50 (Measles Virus; [3]) [µg/mL] | EC50 (Measles Virus; read-out: Antiviral Activities (EC50) Measles (virus yield)) [µg/mL] | EC50 [1, 4] [µg/mL] | EC50 (VZV) [µg/mL] | EC50 (EBV) [µg/mL] | EC50 (Rhinovirus; [5]) [µg/mL] | EC50 (Measles Virus; readout not stated, read-out: Antiviral Activities (EC50) Measles) [µg/mL] | EC50 (Rhinovirus; [6]) [µg/mL] | EC50 (Rhinovirus; [7]) [µg/mL] | EC50 ([1]; CPE inhibition, read-out: Antiviral Activities (EC50) Respiratory Syncitial (CPE)) [µg/mL] | EC50 ([1]; neutral red (NR) dye uptake, read-out: Antiviral Activities (EC50) Respiratory Syncitial (NR)) [µg/mL]
CCCc1cc(=O)oc2cc(OC(=O)CC)c3c(c12)OC(C)(C)C=C3 | > 2 | > 10 | 0.4 (≈ 1.17 µM) | 0.3 (≈ 0.876 µM) | 0.32 (≈ 0.935 µM) | 1 (≈ 2.92 µM) | > 4 |  |  |  |  |  |  | 
CCCc1cc(=O)oc2cc(OC(=O)C(C)(C)C)c3c(c12)OC(C)(C)C=C3 | > 7 | > 10 | 0.2 (≈ 0.54 µM) | 0.6 (≈ 1.62 µM) |  |  | > 100 | 0.39 (≈ 1.05 µM) |  |  |  |  |  | 
CCCc1cc(=O)oc2cc(OS(=O)(=O)c3ccc(C)cc3)c3c(c12)OC(C)(C)C=C3 | 1.6 (≈ 3.63 µM) | > 10 |  |  |  | > 100 | > 100 | 0.2 (≈ 0.454 µM) | > 100 | > 100 |  |  |  | 
CCCc1cc(=O)oc2cc(O)c3c(c12)OC(C)(C)C=C3 |  | > 10 | 0.5 (≈ 1.75 µM) | 0.6 (≈ 2.1 µM) |  | 1 (≈ 3.49 µM) | 89 (≈ 311 µM) | > 50 |  |  |  |  |  | 
CCCc1cc(=O)oc2cc(OC(=O)CC)cc(O)c12 | > 5 | > 3 | 2 (≈ 7.24 µM) | 1 (≈ 3.62 µM) |  | 3 (≈ 10.9 µM) | > 20 | > 50 | > 100 |  |  |  |  | 
CCCc1cc(=O)oc2cc(OS(=O)(=O)c3ccc(C)cc3)cc(O)c12 | > 2 | 2.1 (≈ 5.61 µM) | 1 (≈ 2.67 µM) | 1 (≈ 2.67 µM) |  |  | > 100 | 2.1 (≈ 5.61 µM) |  |  | 1 (≈ 2.67 µM) | 2 (≈ 5.34 µM) | 3 (≈ 8.01 µM) | 2 (≈ 5.34 µM)
CCCc1cc(=O)oc2cc(OC(=O)C(C)(C)C)cc(OC(=O)C(C)(C)C)c12 | 2.2 (≈ 5.66 µM) | > 4 | 2 (≈ 5.15 µM) | 3 (≈ 7.72 µM) |  | > 100 | 5.6 (≈ 14.4 µM) | 3.7 (≈ 9.52 µM) | 20 (≈ 51.5 µM) |  |  |  |  | 
CCCc1cc(=O)oc2cc(OCC(C)(C)C(=O)O)c3c(c12)OC(C)(C)C=C3 | > 8 | 2.6 (≈ 6.73 µM) | > 100 | > 100 |  | > 100 |  |  |  |  | 10 (≈ 25.9 µM) | 1 (≈ 2.59 µM) |  | 
CCCc1cc(=O)oc2cc(OC(C)CCO)c3c(c12)OC(C)(C)C=C3 (stereo not drawn) | 1.5 (≈ 4.18 µM) |  |  |  |  |  |  |  |  |  |  |  |  | 
